According to patent US20210179561A1, “ACID ADDITION SALTS OF APOMORPHINE, PHARMACEUTICAL COMPOSITIONS CONTAINING THE SAME, AND METHODS OF USING THE SAME” (Sunovion Pharmaceuticals Inc., priority 2018, published 2021):
Counter-ions that a name gives are not always drawn.

Tests used:
physchem = details: water
[1] = Intrinsic dissolution (Wood's apparatus, HPLC) in pH 4.5 acetate buffer or artificial saliva; details: for dissolution rates compared with apomorphine glycolate and apomorphine sulfamate: in words
[2] = Dynamic vapor sorption/desorption (DVS); assay type: physicochemical; details: for DVS weight change at 5% equilibration: 5% RH equilibration; for DVS weight loss from 95 to 5% RH: desorption 95 to 5% RH; for DVS weight gain from 5 to 95% RH: sorption 5 to 95% RH
Procedure: Dynamic vapor sorption (DVS) data were collected on a VTI SGA-100 Vapor Sorption Analyzer. NaCl and PVP were used as calibration standards. Samples were not dried prior to analysis. Sorption and desorption data were collected over a range from 5% to 95% RH at 10% RH increments under a nitrogen purge. The equilibrium criterion used for analysis was less than 0.0100% weight change in 5 minutes with a maximum equilibration time of 3 hours. Data were not corrected for the initial moisture content of the samples.

[3] = Approximate aqueous solubility of apomorphine salts; details: water
[4] = solution from aqueous solubility test
[5] = Artificial saliva, 37° C., Table 5 (mean of two tests except glycolate)
[6] = pH 4.5 acetate buffer, 37° C., Table 5 (mean of two tests except glycolate)

| Compound | IDR [1, 5] | dissolution rates compared with apomorphine glycolate and apomorphine sulfamate [1] | IDR [1, 6] | DVS weight change at 5% equilibration [2] | DVS weight loss from 95 to 5% RH [2] | DVS weight gain from 5 to 95% RH [2] | Approximate Aqueous Solubility [3] | further results |
| --- | --- | --- | --- | --- | --- | --- | --- | --- |
| CN1CCc2cccc3c2[C@H]1Cc1ccc(O)c(O)c1-3 [Hydrochloride, apomorphine hydrochloride, reference compound] | 0.582 mg/cm^2/min | significantly lower | 2.643 mg/cm^2/min |  |  |  |  | solubility (physchem): ~21 mg/mL |
| apomorphine glycolate | 10.862 mg/cm^2/min |  | 34.775 mg/cm^2/min | 0.0% | 0.5% | 0.5% |  | Dissolution in pH 4.5 Acetate Buffer ([1]; 1 min, single experiment): 14.548 mg/cm^2; Dissolution in Artificial Saliva ([1]; 3 min, single experiment): 42.192 mg/cm^2; Dissolution in pH 4.5 Acetate Buffer ([1]; 3 min, single experiment): 38.801 mg/cm^2; Dissolution in Artificial Saliva ([1]; 3.5 min, single experiment): 47.686 mg/cm^2; Dissolution in pH 4.5 Acetate Buffer ([1]; 3.5 min, single experiment): 51.432 mg/cm^2; Dissolution in Artificial Saliva ([1]; 4 min, single experiment): 53.878 mg/cm^2; Dissolution in pH 4.5 Acetate Buffer ([1]; 4 min, single experiment): 72.492 mg/cm^2; Dissolution in Artificial Saliva ([1]; 4.5 min, single experiment): 58.232 mg/cm^2; Dissolution in pH 4.5 Acetate Buffer ([1]; 4.5 min, single experiment): 89.739 mg/cm^2; IDR ([1]; artificial saliva, single experiment): 10.862 mg/cm^2/min; IDR ([1]; pH 4.5 acetate buffer, single experiment): 34.775 mg/cm^2/min |
| apomorphine methylbenzoate |  |  |  |  |  |  | <1 mg/mL |  |
| apomorphine glutarate |  |  |  |  |  |  | 3 mg/mL | Approximate pH of Aqueous Solution [4]: 6 |
| apomorphine sulfamate | 16.873 mg/cm^2/min |  | 19.598 mg/cm^2/min | 0.0% | 25.4% |  |  | DVS weight gain from 5 to 85% RH ([2]; sorption 5 to 85% RH): 1.0% |
| CC(C)C(=O)O.CN1CCc2cccc3c2C1Cc1ccc(O)c(O)c1-3 (stereo not shown) [Isobutyrate, apomorphine isobutyrate] | 0.305 mg/cm^2/min | significantly lower | 1.576 mg/cm^2/min | 0.0% | 0.2% | 0.1% |  |  |
